Experimental data taken from US9175003B2, “Substituted azoanthracene derivatives and intermediates for preparation thereof” (TransTech Pharma, LLC, priority 2009, dated 2015).

target: human GLP-1 receptor (Homo sapiens (Human), UniProt P43220); settings: read-out: Mean EC50; cAMP, HTRF detection, 30 min at 37° C., HEK-293 cells expressing cloned human GLP-1 receptor
Sequence (P43220 24-463): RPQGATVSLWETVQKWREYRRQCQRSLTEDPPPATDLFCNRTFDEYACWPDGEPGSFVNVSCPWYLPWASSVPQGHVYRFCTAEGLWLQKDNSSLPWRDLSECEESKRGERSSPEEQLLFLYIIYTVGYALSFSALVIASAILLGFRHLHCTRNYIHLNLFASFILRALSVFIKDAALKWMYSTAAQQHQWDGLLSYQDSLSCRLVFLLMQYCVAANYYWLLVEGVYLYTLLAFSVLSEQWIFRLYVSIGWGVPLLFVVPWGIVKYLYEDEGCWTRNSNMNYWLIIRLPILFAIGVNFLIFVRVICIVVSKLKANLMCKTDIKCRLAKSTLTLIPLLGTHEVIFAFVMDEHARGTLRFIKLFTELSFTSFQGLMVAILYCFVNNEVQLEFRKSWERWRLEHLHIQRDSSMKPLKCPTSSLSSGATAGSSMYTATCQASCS

Row | EC50 [nM] | SMILES
1 | 102 | Cc1cc(C(=O)N2Cc3cc4c(cc3C[C@H]2C(=O)N[C@@H](Cc2ccc(-c3ccnc(C)c3C)cc2)C(=O)O)OC[C@H](c2ccc(OCc3ccc(Cl)c(Cl)c3)cc2)O4)no1 [Example 271, (S)-2-{[(3S,8S)-3-[4-(3,4-Dichloro-benzyloxy)-phenyl]-7-(5-methyl-isoxazole-3-carbonyl)-2,3,6,7,8,9-hexahydro-[1,4]dioxino[2,3-g]isoquinoline-8-carbonyl]-amino}-3-[4-(2,3-dimethyl-pyridin-4-yl)-phenyl]-propionic acid]
2 | 2 | Cc1nccc(-c2ccc(C[C@H](NC(=O)[C@@H]3Cc4cc5c(cc4CN3C(=O)C3CCN(C(=O)OC(C)(C)C)CC3)O[C@@H](c3ccc(OCc4ccc(Cl)c(Cl)c4)cc3)CO5)C(=O)O)cc2)c1C [Example 274, 4-{(3S,8S)-8-{(S)-1-Carboxy-2-[4-(2,3-dimethyl-pyridin-4-yl)-phenyl]-ethylcarbamoyl}-3-[4-(3,4-dichloro-benzyloxy)-phenyl]-2,3,8,9-tetrahydro-6H-[1,4]dioxino[2,3-g]isoquinoline-7-carbonyl}-piperidine-1-carboxyl is acid tert-butyl ester]
3 | 143 | Cc1nccc(-c2ccc(C[C@H](NC(=O)[C@@H]3Cc4cc5c(cc4CN3C(=O)c3cccc(O)c3)O[C@@H](c3ccc(OCc4ccc(Cl)c(Cl)c4)cc3)CO5)C(=O)O)cc2)c1C [Example 277, (S)-2-{[(3S,8S)-3-[4-(3,4-Dichloro-benzyloxy)-phenyl]-7-(3-hydroxy-benzoyl)-2,3,6,7,8,9-hexahydro-[1,4]dioxino[2,3-g]isoquinoline-8-carbonyl]-amino}-3-[4-(2,3-dimethyl-pyridin-4-yl)-phenyl]-propionic acid]
4 | 45 | Cc1nccc(-c2ccc(C[C@H](NC(=O)[C@@H]3Cc4cc5c(cc4CN3C(=O)c3cc(F)cc(F)c3)O[C@@H](c3ccc(OCc4ccc(Cl)c(Cl)c4)cc3)CO5)C(=O)O)cc2)c1C [Example 278, (S)-2-{[(3S,8S)-3-[4-(3,4-Dichloro-benzyloxy)-phenyl]-7-(3,5-difluoro-benzoyl)-2,3,6,7,8,9-hexahydro-[1,4]dioxino[2,3-g]isoquinoline-8-carbonyl]-amino}-3-[4-(2,3-dimethyl-pyridin-4-yl)-phenyl]-propionic acid]
5 | 15 | Cc1nccc(-c2ccc(C[C@H](NC(=O)[C@@H]3Cc4cc5c(cc4CN3C(=O)[C@H]3CCCN3C(=O)OC(C)(C)C)O[C@@H](c3ccc(OCc4ccc(Cl)c(Cl)c4)cc3)CO5)C(=O)O)cc2)c1C [Example 279, (R)-2-{(3S,8S)-8-{(S)-1-Carboxy-2-[4-(2,3-dimethyl-pyridin-4-yl)-phenyl]-ethylcarbamoyl}-3-[4-(3,4-dichloro-benzyloxy)-phenyl]-2,3,8,9-tetrahydro-6H-[1,4]dioxino[2,3-g]isoquinoline-7-carbonyl}-pyrrolidine-1-carboxylic acid tert-butyl ester]
6 | 165 | Cc1nccc(-c2ccc(C[C@H](NC(=O)[C@@H]3Cc4cc5c(cc4CN3C(=O)[C@H]3CCN(C(=O)OC(C)(C)C)C3)O[C@@H](c3ccc(OCc4ccc(Cl)c(Cl)c4)cc3)CO5)C(=O)O)cc2)c1C [Example 280, (S)-3-{(3S,8S)-8-{(S)-1-Carboxy-2-[4-(2,3-dimethyl-pyridin-4-yl)-phenyl]-ethylcarbamoyl}-3-[4-(3,4-dichloro-benzyloxy)-phenyl]-2,3,8,9-tetrahydro-6H-[1,4]dioxino[2,3-g]isoquinoline-7-carbonyl}-pyrrolidine-1-carboxylic acid tert-butyl ester]
7 | 5 | Cc1nccc(-c2ccc(C[C@H](NC(=O)[C@@H]3Cc4cc5c(cc4CN3C(=O)[C@@H]3CCN(C(=O)OC(C)(C)C)C3)O[C@@H](c3ccc(OCc4ccc(Cl)c(Cl)c4)cc3)CO5)C(=O)O)cc2)c1C [Example 281, (R)-3-{(3S,8S)-8-{(S)-1-Carboxy-2-[4-(2,3-dimethyl-pyridin-4-yl)-phenyl]-ethylcarbamoyl}-3-[4-(3,4-dichloro-benzyloxy)-phenyl]-2,3,8,9-tetrahydro-6H-[1,4]dioxino[2,3-g]isoquinoline-7-carbonyl}-pyrrolidine-1-carboxylic acid tert-butyl ester]
8 | 198 | Cc1nccc(-c2ccc(C[C@H](NC(=O)[C@@H]3Cc4cc5c(cc4CN3C(=O)C3Cc4ccccc4C3)O[C@@H](c3ccc(OCc4ccc(Cl)c(Cl)c4)cc3)CO5)C(=O)O)cc2)c1C [Example 282, (S)-2-{[(3S,8S)-3-[4-(3,4-Dichloro-benzyloxy)-phenyl]-7-(indane-2-carbonyl)-2,3,6,7,8,9-hexahydro-[1,4]dioxino[2,3-g]isoquinoline-8-carbonyl]-amino}-3-[4-(2,3-dimethyl-pyridin-4-yl)-phenyl]-propionic acid]
9 | 261 | Cc1nccc(-c2ccc(C[C@H](NC(=O)[C@@H]3Cc4cc5c(cc4CN3C(=O)OC(C)C)O[C@@H](c3ccc(OCc4ccc(Cl)c(Cl)c4)cc3)CO5)C(=O)O)cc2)c1C [Example 293, (3S,8S)-8-{(S)-1-Carboxy-2-[4-(2,3-dimethyl-pyridin-4-yl)-phenyl]-ethylcarbamoyl}-3-[4-(3,4-dichloro-benzyloxy)-phenyl]-2,3,8,9-tetrahydro-6H-[1,4]dioxino[2,3-g]isoquinoline-7-carboxylic acid isopropyl ester]
10 | 137 | Cc1nccc(-c2ccc(C[C@H](NC(=O)[C@@H]3Cc4cc5c(cc4CN3C(=O)OCC(C)C)O[C@@H](c3ccc(OCc4ccc(Cl)c(Cl)c4)cc3)CO5)C(=O)O)cc2)c1C [Example 295, (3S,8S)-8-{(S)-1-Carboxy-2-[4-(2,3-dimethyl-pyridin-4-yl)-phenyl]-ethylcarbamoyl}-3-[4-(3,4-dichloro-benzyloxy)-phenyl]-2,3,8,9-tetrahydro-6H-[1,4]dioxino[2,3-g]isoquinoline-7-carboxylic acid isobutyl ester]
11 | 263 | CCCCOC(=O)N1Cc2cc3c(cc2C[C@H]1C(=O)N[C@@H](Cc1ccc(Oc2ccnc(C)c2C)cc1)C(=O)O)OC[C@H](c1ccc(OCc2ccc(Cl)c(Cl)c2)cc1)O3 [Example 299, (3S,8S)-8-{(S)-1-Carboxy-2-[4-(2,3-dimethyl-pyridin-4-yloxy)-phenyl]-ethylcarbamoyl}-3-[4-(3,4-dichloro-benzyloxy)-phenyl]-2,3,8,9-tetrahydro-6H-[1,4]dioxino[2,3-g]isoquinoline-7-carboxylic acid butyl ester]
12 | 182 | Cc1nccc(Oc2ccc(C[C@H](NC(=O)[C@@H]3Cc4cc5c(cc4CN3C(=O)OCc3ccccc3)O[C@@H](c3ccc(OCc4ccc(Cl)c(Cl)c4)cc3)CO5)C(=O)O)cc2)c1C [Example 302, (3S,8S)-8-{(S)-1-Carboxy-2-[4-(2,3-dimethyl-pyridin-4-yloxy)-phenyl]-ethylcarbamoyl}-3-[4-(3,4-dichloro-benzyloxy)-phenyl]-2,3,8,9-tetrahydro-6H-[1,4]dioxino[2,3-g]isoquinoline-7-carboxylic acid benzyl ester]
13 | 200 | Cc1nccc(-c2ccc(C[C@H](NC(=O)[C@@H]3Cc4cc5c(cc4CN3C(=O)c3ccccc3)O[C@@H](c3ccc(OCC4CCCC4)cc3)CO5)C(=O)O)cc2)c1C [Example 305, (S)-2-{[(3S,8S)-7-Benzoyl-3-(4-cyclopentylmethoxy-phenyl)-2,3,6,7,8,9-hexahydro-[1,4]dioxino[2,3-g]isoquinoline-8-carbonyl]-amino}-3-[4-(2,3-dimethyl-pyridin-4-yl)-phenyl]-propionic acid]
14 | 103 | Cc1nccc(-c2ccc(C[C@H](NC(=O)[C@@H]3Cc4cc5c(cc4CN3C(=O)c3ccccc3)O[C@@H](c3ccc(O[C@H]4CC[C@H](C)CC4)cc3)CO5)C(=O)O)cc2)c1C [Example 306, (S)-2-({(3S,8S)-7-Benzoyl-3-[4-(trans-4-methyl-cyclohexyloxy)-phenyl]-2,3,6,7,8,9-hexahydro-[1,4]dioxino[2,3-g]isoquinoline-8-carbonyl}-amino)-3-[4-(2,3-dimethyl-pyridin-4-yl)-phenyl]-propionic acid]
15 | 74 | Cc1nccc(-c2ccc(C[C@H](NC(=O)[C@@H]3Cc4cc5c(cc4CN3C(=O)N3CCOCC3)O[C@@H](c3ccc(OCc4ccc(Cl)c(Cl)c4)cc3)CO5)C(=O)O)cc2)c1C [Example 311, (S)-2-{[(3S,8S)-3-[4-(3,4-Dichloro-benzyloxy)-phenyl]-7-(morpholine-4-carbonyl)-2,3,6,7,8,9-hexahydro-[1,4]dioxino[2,3-g]isoquinoline-8-carbonyl]-amino}-3-[4-(2,3-dimethyl-pyridin-4-yl)-phenyl]-propionic acid]
16 | 32 | Cc1nccc(-c2ccc(C[C@H](NC(=O)[C@@H]3Cc4cc5c(cc4CN3C(=O)N3CCCCC3)O[C@@H](c3ccc(OCc4ccc(Cl)c(Cl)c4)cc3)CO5)C(=O)O)cc2)c1C [Example 312, (S)-2-{[(3S,8S)-3-[4-(3,4-Dichloro-benzyloxy)-phenyl]-7-(piperidine-1-carbonyl)-2,3,6,7,8,9-hexahydro-[1,4]dioxino[2,3-g]isoquinoline-8-carbonyl]-amino}-3-[4-(2,3-dimethyl-pyridin-4-yl)-phenyl]-propionic acid]
17 | 73 | Cc1nccc(-c2ccc(C[C@H](NC(=O)[C@@H]3Cc4cc5c(cc4CN3C(=O)N3CCCC3)O[C@@H](c3ccc(OCc4ccc(Cl)c(Cl)c4)cc3)CO5)C(=O)O)cc2)c1C [Example 313, (S)-2-{[(3S,8S)-3-[4-(3,4-Dichloro-benzyloxy)-phenyl]-7-(pyrrolidine-1-carbonyl)-2,3,6,7,8,9-hexahydro-[1,4]dioxino[2,3-g]isoquinoline-8-carbonyl]-amino}-3-[4-(2,3-dimethyl-pyridin-4-yl)-phenyl]-propionic acid]

Row | SMILES | EC50 [nM]
18 | Cc1nccc(-c2ccc(C[C@H](NC(=O)[C@@H]3Cc4cc5c(cc4CN3C(=O)c3ccccc3)O[C@@H](c3ccc(OCCC(C)(C)C)cc3)CO5)C(=O)O)cc2)c1C [Example 303, (S)-2-({(3S,8S)-7-Benzoyl-3-[4-(3,3-dimethyl-butoxy)-phenyl]-2,3,6,7,8,9-hexahydro-[1,4]dioxino[2,3-g]isoquinoline-8-carbonyl}-amino)-3-[4-(2,3-dimethyl-pyridin-4-yl)-phenyl]-propionic acid] | 141
